From patent US8501770B2 (ArQule, Inc., priority 2009, dated 2013) come the findings set out here.

Counter-ions that a name gives are not always drawn.

The target in one experiment is Full-length inactive AKT1 (Homo sapiens, UniProt P31749). Put plainly: Inactive Akt Alpha Screen Assay. In kind it is biochemical. To be noted: AlphaScreen assay (values not marked with *); read-out: Akt1 IC50, (AlphaScreen) (μM) (or if marked with “*” HTRF assay). Summed up: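 AlphaScreen read-out (excitation 640 nm, emission 570 nm) after 90 min incubation at room temperature in the dark. Signal comes from crosstide phosphorylation by AKT1, which was activated by added PDK1, MAPKAPK2, ATP and lipid vesicles, captured via phospho-AKT substrate antibody and streptavidin beads.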
Chain of Full-length inactive AKT1 (P31749 whole entry): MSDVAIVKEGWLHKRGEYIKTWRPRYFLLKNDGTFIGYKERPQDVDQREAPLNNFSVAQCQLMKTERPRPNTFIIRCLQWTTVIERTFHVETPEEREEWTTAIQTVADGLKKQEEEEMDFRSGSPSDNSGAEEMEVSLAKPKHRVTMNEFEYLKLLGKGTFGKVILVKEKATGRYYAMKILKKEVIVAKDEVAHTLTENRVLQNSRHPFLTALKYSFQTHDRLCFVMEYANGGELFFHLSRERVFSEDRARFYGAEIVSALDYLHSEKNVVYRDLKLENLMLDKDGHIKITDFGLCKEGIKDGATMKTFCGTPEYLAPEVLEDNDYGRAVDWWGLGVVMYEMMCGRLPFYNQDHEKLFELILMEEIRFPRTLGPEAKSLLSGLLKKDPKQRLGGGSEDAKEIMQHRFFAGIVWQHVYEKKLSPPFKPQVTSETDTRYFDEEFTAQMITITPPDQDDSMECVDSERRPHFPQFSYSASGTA
For orientation: In Alpha technology, singlet oxygen from a donor bead excites a nearby acceptor bead.
By IC50 is commonly meant the concentration at which inhibition is half-maximal. For `CN(C)S(=O)(=O)Nc1cccc(-c2ccc3nc(-c4cccnc4N)n(-c4ccc(C5(N)CCC5)cc4)c3n2)c1` [Example 455, N′-(3-{3-[4-(1-aminocyclobutyl)phenyl]-2-(2-aminopyridin-3-yl)-3H-imidazo[4,5-b]pyridin-5-yl}phenyl)-N,N-dimethylsulfamide], the IC50 was 0.011 µM.
Same read-out and setting: the result for `CN1CCOc2cc(-c3ccc4nc(-c5cccnc5N)n(-c5ccc(C6(N)CCC6)cc5)c4n3)ccc21` [Example 433, 3-{3-[4-(1-aminocyclobutyl)phenyl]-5-(4-methyl-3,4-dihydro-2H-1,4-benzoxazin-7-yl)-3H-imidazo[4,5-b]pyridin-2-yl}pyridin-2-amine] reads 0.0018 µM; that for `Nc1ncccc1-c1nc2ccc(-c3ccc(O)nc3)nc2n1-c1ccc(C2(N)CCC2)cc1` [Example 447, 5-{3-[4-(1-aminocyclobutyl)phenyl]-2-(2-aminopyridin-3-yl)-3H-imidazo[4,5-b]pyridin-5-yl}pyridin-2-ol], 0.045 µM.

The same experiment, now with this note: values not marked with "*": AlphaScreen assay; read-out: Akt1 IC50, (AlphaScreen).
With `Nc1ccc(-n2c(-c3cccnc3N)nc3cccnc32)cc1` [Example 106, hydrochloride], the IC50 turned out to be 2.53 µM.
The same measure, in the same setting: the result for `Nc1ncccc1-c1nc2cccnc2n1-c1ccc(CNC(=O)c2ccccc2-n2cccc2)cc1` [Example 78] reads 0.307 µM; that for `Nc1ncccc1-c1nc2cccnc2n1-c1ccc(S(=O)(=O)N2CCCCC2)cc1` [Example 38], 4.31 µM.
The same measure, in the same setting: the result for `Nc1ncccc1-c1nc2cccnc2n1-c1ccc(CNC(=O)c2cccnc2)cc1` [Example 12] reads 0.211 µM; that for `CCOC(=O)Cc1ccc(-n2c(-c3cccnc3N)nc3cccnc32)cc1` [Example 113], 0.61 µM; that for `Nc1ncccc1-c1nc2cccnc2n1-c1ccc(CNC(=O)c2cccc(F)c2)cc1` [Example 49], 0.084 µM.

Still in this experiment, the particulars now being: values not marked with "*"; read-out: Akt1 IC50, (AlphaScreen).
`Nc1ncccc1-c1nc2ccc(-c3ccccc3)nc2n1-c1ccc(C2(NC(=O)Nc3ccccc3)CCC2)cc1` [Example 381, 1-(1-(4-(2-(2-aminopyridin-3-yl)-5-phenyl-3H-imidazo[4,5-b]pyridin-3-yl)phenyl)cyclobutyl)-3-phenylurea]: the IC50 worked out at 0.054 µM.
Same read-out and setting: with `CS(=O)(=O)c1cccc(-c2ccc3nc(-c4cccnc4N)n(-c4ccc(C5(N)CCC5)cc4)c3n2)c1` [Example 391, 3-(3-(4-(1-aminocyclobutyl)phenyl)-5-(3-(methylsulfonyl)phenyl)-3H-imidazo[4,5-b]pyridin-2-yl)pyridin-2-amine] the figure was 0.005 µM.
Regarding `CC(=O)Nc1ccc(-c2cnc3c(c2)nc(-c2cccnc2N)n3-c2ccc(CNC(=O)c3ccccc3)cc2)cc1` [Example 197, N-(4-(6-(4-acetamidophenyl)-2-(2-aminopyridin-3-yl)-3H-imidazo[4,5-b]pyridin-3-yl)benzyl)benzamide], the IC50 was determined as 0.047 µM.
Consider `Cc1cnc2c(c1)nc(-c1cccnc1N)n2-c1ccc(CNC(=O)CCC2CCCCC2)cc1` [Example 213, N-(4-(2-(2-aminopyridin-3-yl)-6-methyl-3H-imidazo[4,5-b]pyridin-3-yl)benzyl)-3-cyclohexylpropanamide], for which the IC50 was determined as 0.48 µM.
Same read-out and setting: the result for `CC(=O)Nc1ccc(NC(=O)Cc2ccc(-n3c(-c4cccnc4N)nc4cc(F)cnc43)cc2)cc1` [Example 342, N-(4-acetamidophenyl)-2-(4-(2-(2-aminopyridin-3-yl)-6-fluoro-3H-imidazo[4,5-b]pyridin-3-yl)phenyl)acetamide] reads 0.061 µM.
On the same count and under the same terms, the result for `Cc1cnc2c(c1)nc(-c1cccnc1N)n2-c1ccc(CNC(=O)c2cccnc2)cc1` [Example 268, N-(4-(2-(2-aminopyridin-3-yl)-6-methyl-3H-imidazo[4,5-b]pyridin-3-yl)benzyl)nicotinamide] reads 0.59 µM.
Still for that read-out and setting: the result for `CC(=O)Nc1ccc(-c2ccc3nc(-c4cccnc4N)n(-c4ccc(CNC(=O)OC(C)(C)C)cc4)c3n2)cc1` [Example 259, tert-butyl 4-(5-(4-acetamidophenyl)-2-(2-aminopyridin-3-yl)-3H-imidazo[4,5-b]pyridin-3-yl)benzylcarbamate] reads 0.53 µM; that for `CS(=O)(=O)Nc1ccc(-c2ccc3nc(-c4cccnc4N)n(-c4ccc(C5(N)CCC5)cc4)c3n2)cc1` [Example 403, N-(4-{3-[4-(1-aminocyclobutyl)phenyl]-2-(2-aminopyridin-3-yl)-3H-imidazo[4,5-b]pyridin-5-yl}phenyl)methanesulfonamide], 0.0045 µM; that for `Nc1ncccc1-c1nc2cc(-c3cccnc3)cnc2n1-c1ccc(CNC(=O)c2cccc(F)c2)cc1` [Example 239, N-(4-(2-(2-aminopyridin-3-yl)-6-(pyridin-3-yl)-3H-imidazo[4,5-b]pyridin-3-yl)benzyl)-3-fluorobenzamide], 0.021 µM.
As to `CC(=O)Nc1cccc(-c2nc3c(cc2C)nc(-c2cccnc2N)n3-c2ccc(CNC(=O)c3ccccc3)cc2)c1` [Example 344, N-(4-(5-(3-acetamidophenyl)-2-(2-aminopyridin-3-yl)-6-methyl-3H-imidazo[4,5-b]pyridin-3-yl)benzyl)benzamide], the IC50 was 0.023 µM.
On the same count and under the same terms, with `CS(=O)(=O)Nc1cccc(-c2ccc3nc(-c4cccnc4N)n(-c4ccc(C5(N)CCC5)cc4)c3n2)c1` [Example 375, N-(3-(3-(4-(1-aminocyclobutyl)phenyl)-2-(2-aminopyridin-3-yl)-3H-imidazo[4,5-b]pyridin-5-yl)phenyl)methanesulfonamide] the figure was 0.0014 µM; with `Nc1ncccc1-c1nc2ccc(-c3cc[nH]n3)nc2n1-c1ccc(C2(N)CCC2)cc1` [Example 418, 3-{3-[4-(1-aminocyclobutyl)phenyl]-5-(1H-pyrazol-3-yl)-3H-imidazo[4,5-b]pyridin-2-yl}pyridin-2-amine], 0.0082 µM; with `Cn1cccc1C(=O)NCc1ccc(-n2c(-c3cccnc3N)nc3cc(-c4cccnc4)cnc32)cc1` [Example 252, N-(4-(2-(2-aminopyridin-3-yl)-6-(pyridin-3-yl)-3H-imidazo[4,5-b]pyridin-3-yl)benzyl)-1-methyl-1H-pyrrole-2-carboxamide], 0.17 µM.
Consider `COc1ccc(NC(=O)NCc2ccc(-n3c(-c4cccnc4N)nc4cc(F)cnc43)cc2)cc1` [Example 176, 1-{4-[2-(2-aminopyridin-3-yl)-6-fluoro-3H-imidazo[4,5-b]pyridin-3-yl]benzyl}-3-(4-methoxyphenyl)urea], for which the IC50 came out at 1.2 µM.
For `COc1ccc(S(=O)(=O)NCc2ccc(-n3c(-c4cccnc4N)nc4cc(-c5cccnc5)cnc43)cc2)cc1` [Example 206, N-(4-(2-(2-aminopyridin-3-yl)-6-(pyridin-3-yl)-3H-imidazo[4,5-b]pyridin-3-yl)benzyl)-4-methoxybenzenesulfonamide], the IC50 was 0.13 µM.
Same read-out and setting: the result for `Nc1ncccc1-c1nc2cc(-c3cccnc3)cnc2n1-c1ccc(CC(=O)Nc2cccc(F)c2)cc1` [Example 320, 2-(4-(2-(2-aminopyridin-3-yl)-6-(pyridin-3-yl)-3H-imidazo[4,5-b]pyridin-3-yl)phenyl)-N-(3-fluorophenyl)acetamide] reads 0.057 µM; that for `CC(=O)Nc1cccc(-c2ccc3nc(-c4cccnc4N)n(-c4ccc(CNC(=O)c5ccc(C)c(F)c5)cc4)c3n2)c1` [Example 293, N-(4-(5-(3-acetamidophenyl)-2-(2-aminopyridin-3-yl)-3H-imidazo[4,5-b]pyridin-3-yl)benzyl)-3-fluoro-4-methylbenzamide], 0.0095 µM.
On the same count and under the same terms, the result for `COc1cccc(-c2ccc3nc(-c4cccnc4N)n(-c4ccc(C5(N)CCC5)cc4)c3n2)c1O` [Example 430, 2-{3-[4-(1-aminocyclobutyl)phenyl]-2-(2-aminopyridin-3-yl)-3H-imidazo[4,5-b]pyridin-5-yl}-6-methoxyphenol] reads 0.0038 µM; that for `Nc1ncccc1-c1nc2ccc(-c3cnccn3)nc2n1-c1ccc(C2(N)CCC2)cc1` [Example 401, 3-(3-(4-(1-aminocyclobutyl)phenyl)-5-(pyrazin-2-yl)-3H-imidazo[4,5-b]pyridin-2-yl)pyridin-2-amine], 0.0064 µM.
The same measure, in the same setting: with `CC(C)C(=O)Nc1cccc(-c2ccc3nc(-c4cccnc4N)n(-c4ccc(C5(N)CCC5)cc4)c3n2)c1` [Example 405, N-(3-{3-[4-(1-aminocyclobutyl)phenyl]-2-(2-aminopyridin-3-yl)-3H-imidazo[4,5-b]pyridin-5-yl}phenyl)-2-methylpropanamide] the figure was 0.013 µM; with `CCS(=O)(=O)NCc1ccc(-n2c(-c3cccnc3N)nc3cc(Br)cnc32)cc1` [Example 170, N-{4-[2-(2-aminopyridin-3-yl)-6-bromo-3H-imidazo[4,5-b]pyridin-3-yl]benzyl}ethanesulfonamide], 0.49 µM.
Consider `Cc1cnc2c(c1)nc(-c1cccnc1N)n2-c1ccc(CNC(=O)c2cccc(F)c2)cc1` [Example 232, N-(4-(2-(2-aminopyridin-3-yl)-6-methyl-3H-imidazo[4,5-b]pyridin-3-yl)benzyl)-3-fluorobenzamide], for which the IC50 was found to be 0.041 µM.
The same measure, in the same setting: the result for `CCOC(=O)Cc1ccc(-n2c(-c3cccnc3N)nc3ccc(Cl)nc32)cc1` [Example 241, ethyl 2-(4-(2-(2-aminopyridin-3-yl)-5-chloro-3H-imidazo[4,5-b]pyridin-3-yl)phenyl)acetate] reads 0.33 µM; that for `CC(C)(C)OC(=O)NC1(c2ccc(-n3c(-c4cccnc4N)nc4ccc(-c5ccccc5)nc43)cc2)CCC1` [Example 350, tert-butyl (1-(4-(2-(2-aminopyridin-3-yl)-5-phenyl-3H-imidazo[4,5-b]pyridin-3-yl)phenyl)cyclobutyl)carbamate], 1.4 µM; that for `Cc1cnc2c(c1)nc(-c1cccnc1N)n2-c1ccc(CNC(=O)c2ccccn2)cc1` [Example 284, N-(4-(2-(2-aminopyridin-3-yl)-6-methyl-3H-imidazo[4,5-b]pyridin-3-yl)benzyl)picolinamide], 0.77 µM.
